For this assay, the target named is MAP kinase-activated protein kinase 2 (Homo sapiens, UniProt P49137). As to the kind of experiment: Inhibition of GST-tagged MAPKAPK2 assessed as [33P] incorporation after 40 mins by scintillation proximity assay.
Sequence of MAP kinase-activated protein kinase 2 (P49137 whole entry): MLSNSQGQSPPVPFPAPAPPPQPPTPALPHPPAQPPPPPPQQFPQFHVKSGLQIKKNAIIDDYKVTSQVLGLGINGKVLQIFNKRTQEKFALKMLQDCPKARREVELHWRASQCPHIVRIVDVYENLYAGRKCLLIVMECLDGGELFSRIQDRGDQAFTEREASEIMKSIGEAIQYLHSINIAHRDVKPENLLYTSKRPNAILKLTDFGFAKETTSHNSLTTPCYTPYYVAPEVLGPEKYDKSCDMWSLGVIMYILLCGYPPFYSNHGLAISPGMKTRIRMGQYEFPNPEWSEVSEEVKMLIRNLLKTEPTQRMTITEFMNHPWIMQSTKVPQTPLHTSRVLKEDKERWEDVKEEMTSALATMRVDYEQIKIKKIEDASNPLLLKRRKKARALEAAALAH

With `CC(C)=CCC/C(C)=C/C[C@]12C[C@@H](CC=C(C)C)[C@](C)(CCC=C(C)C)[C@](CC=C(C)C)(C(=O)C(C(=O)c3ccc(O)c(O)c3)=C1O)C2=O` [GUTTIFERONE P], the IC50 is 22 µM. `CC(C)=CCC/C(C)=C/C[C@]12C[C@@H](CC=C(C)C)C(C)(C)[C@](C/C=C(\C)CCC=C(C)C)(C(=O)C(C(=O)c3ccc(O)c(O)c3)=C1O)C2=O` [GUTTIFERONE O]: the IC50 came out at 22 µM.

By IC50 is commonly meant the concentration needed to halve the response being measured.

Values taken from ChEMBL document CHEMBL1154227, “Guttiferones O and P, prenylated benzophenone MAPKAPK-2 inhibitors from Garcinia solomonensis” (J Nat Prod, 2009).
